Measured values reported in article PMC6458983 (Cancer Chemotherapy and Pharmacology, 2019).
Where two headings read alike, the source gives them in different places.

Experiments:
[1] = tested on: Japanese patients with NSCLC; assay: Multivariate logistic regression of ILD with gefitinib exposure and other risk factors; assay type: in vivo; settings: Analysis 4; gefitinib exposure at steady state
Method: Patients with and without ILD, in whom pharmacokinetic measurements were available, were included in this analysis. […] A multivariate logistic regression model was used in this analysis; the analysis was performed using SAS version 9.3. […] In addition, the interaction of smoking history and normal lung coverage, and the interaction of the severity of pre-existing ILD and normal lung coverage were also studied. In addition, pharmacokinetic exposure parameters were divided into four quartiles (see “Results”) and investigated as risk factors. For association with ILD risk, the mid-1, mid-2, and high-exposure groups were compared with the low-exposure group.

[2] = sustained elevation of gastric pH; cited from earlier work
[3] = Predicted gefitinib exposure (empirical Bayesian estimates), inter- and intra-patient comparison with/without ILD; assay type: in vivo, Japanese patients with NSCLC; settings: human, plasma, oral, 250 mg
Method: (§1) When estimating the exposure at first dosing and at steady state, time-dependent pharmacokinetics were not assumed. Thus, both exposures at first dosing and steady state can be theoretically derived if at least one plasma concentration at either first dosing or steady state is available. Individual exposures were predicted based on patients’ dosing history, assuming steady state at 144 h after the first dosing. […] Serum concentration of AGP were likewise determined at first dosing and at steady state.
AUC0–24 and Cmax were chosen as exposure metrics.

[4] = Population pharmacokinetic analysis of gefitinib plasma concentrations (NONMEM, one-compartment model); assay type: in vivo, Japanese patients with NSCLC
Method: Six blood samples were taken from each patient at 1–3, 3–8, and 24 h after first treatment dosing (Day 1) and at steady state (Days 10–15). In addition, blood samples were taken from each patient with ILD, if possible, when ILD developed. […] In total, data for 1891 plasma concentrations taken from 336 patients were used for population pharmacokinetic modeling.
as §1
The population pharmacokinetic analysis was performed using the non-linear mixed-effect modeling (NONMEM) program version V level 1.1 with the PREDPP library and the NM-TRAN pre-processor (GloboMax LLC, Hanover, MD, USA). Full details of the population pharmacokinetic model development and analysis are described in the Online Resource.
The population pharmacokinetic analysis was performed using the NONMEM program version V level 1.1 with the PREDPP library and the NM-TRAN pre-processor (GloboMax LLC, Hanover, MD).
Following preliminary modeling to build a base model, log-transformed plasma concentrations were used for the analysis, and a one-compartment model after first-order absorption with lag-time was selected as the structural model. The first-order method was adopted as an approximation in integral of marginal likelihood. The inter-individual variability on pharmacokinetic parameters was described using an exponential error model, and the intra-individual variability on log-transformed plasma concentration was described using an additive error model.
The covariate model was developed based on the forward addition method and the backward deletion method. Continuous covariates such as body weight, age, sex, α1-acid glycoprotein (AGP), serum albumin, total protein, aspartate aminotransferase, alanine aminotransferase, alkaline phosphatase, total bilirubin, and creatinine clearance were tested using a power model centered on the mean value.
Categorical covariates included were age group (<65 years or ≥65 years), concomitant use of cytochrome P450 3A4 (CYP3A4) inducers, concomitant use of CYP3A4 inhibitors, and concomitant use of proton pump inhibitors and/or H2 antagonists. In addition, interstitial lung disease (ILD) status (i.e. “patients with ILD” vs “patients without ILD”) and ILD period (i.e. “at times other than ILD development” vs “at the time of ILD development”) were tested using a productive multiplicative model with the discrete variable (0 or 1).
χ^2 tests with one degree of freedom based on the objective function value (OFV) in NONMEM, which corresponds to -2-fold of log-likelihood, were used for developing the covariate model, and the adopted statistically significant levels were p=0.05 (ΔOFV=3.84) and p=0.001 (ΔOFV=10.83) when a covariate was included and excluded from the pharmacokinetic model, respectively.
Goodness-of-fit plots were used for diagnosis of the final model. The robustness of the final model was evaluated by a randomized non-stratified bootstrap technique with 200 resampling datasets, and model predictability was examined by visual predictive check.

CYP3A4 = settings: in vitro and in vivo studies; cited from earlier work
[5] = tested on: Japanese patients with NSCLC
Method: Area under the plasma concentration–time curve from 0 to 24 h (AUC0–24) and maximum plasma concentrations (Cmax) were calculated using empirical Bayesian estimates of pharmacokinetic parameters in the final population pharmacokinetic model. AUC0–24 and Cmax were chosen as exposure metrics. The incidence of ILD was summarized for four exposure levels, defined using exposure quartiles after a single dose and at steady state, respectively.
After a single dose, predicted pharmacokinetic values were available for all 51 patients with ILD and all 285 patients without ILD. […] Each pharmacokinetic parameter was quartiled separately.

[6] = cited from earlier work
human AGP = settings: cited from earlier work
[7] = after a single dose, third-quartile cut-off of predicted exposure

Structure (SMILES): COc1cc2ncnc(Nc3ccc(F)c(Cl)c3)c2cc1OCCCN1CCOCC1 [gefitinib]
- OR estimate (95% CI) for acute ILD: Cmax,ss Quartile 4 vs Quartile 1 [1]: 1.07 (0.27–4.29)
- decrease of bioavailability [2]: 47%
- Cmax ([3]; after the first dosing, patients with ILD, value printed in box plot Fig. 1a, read-out: Cmax): 214 ng/mL
- Cmax ([3]; after the first dosing, patients without ILD, value printed in box plot Fig. 1a, read-out: Cmax): 157 ng/mL
- AUC(0-t) ([3]; after the first dosing, patients with ILD, Fig. 1b, read-out: AUC0-24): 3970 ng·h/mL
- AUC(0-t) ([3]; after the first dosing, patients without ILD, Fig. 1b, read-out: AUC0-24): 2990 ng·h/mL
- Cmax ([3]; intra-patient (n = 19), at the time of ILD development, Fig. 2a, read-out: Cmax): 679 ng/mL
- AUC(0-t) ([3]; intra-patient (n = 19), at the time of ILD development, Fig. 2b, read-out: AUC0-24): 13600 ng·h/mL
- Cmax ([3]; intra-patient (n = 19), at time other than ILD development (steady state), Fig. 2a, read-out: Cmax): 517 ng/mL
- AUC(0-t) ([3]; intra-patient (n = 19), at time other than ILD development (steady state), Fig. 2b, read-out: AUC0-24): 10100 ng·h/mL
- Cmax ([3]; steady state, 250 mg once daily, patients without ILD, Fig. 1d, read-out: Cmax,ss): 434 ng/mL
- AUC(0-t) ([3]; steady state, patients with ILD, Fig. 1e, read-out: AUC0-24,SS): 10600 ng·h/mL
- Cmax ([3]; steady state, patients with ILD, Fig. 1d, read-out: Cmax,ss): 517 ng/mL
- AUC(0-t) ([3]; steady state, patients without ILD, Fig. 1e, read-out: AUC0-24,SS): 8830 ng·h/mL
- decrease of CL/F ([4]; at the time of ILD development, population pharmacokinetic analysis): 25.7%
- θ3 ([4]; base in CL/F equation (AGE ≥ 65 term, CL/F declined in elderly)): 0.759
- θ6 ([4]; base in CL/F equation (PERI, at the time of ILD diagnosis)): 0.743
- θ5 ([4]; exponent in CL/F equation (body weight term)): 0.503
- θ1 ([4]; typical value term of the CL/F equation (equation is drawing C00001), population estimate): 28.6
- θ7 ([4]; typical value term of the V/F equation (equation is drawing C00002), population estimate): 1540
- enzyme involved in the metabolic clearance (CYP3A4): CYP3A4 is the major enzyme
- Proportion of patients with ILD, by AUC quartile ([5]; after a single dose, AUC0–24 Quartile 1): 11.9%
- Proportion of patients with ILD, by AUC quartile ([5]; after a single dose, AUC0–24 Quartile 2): 8.3%
- Proportion of patients with ILD, by AUC quartile ([5]; after a single dose, AUC0–24 Quartile 3): 8.3%
- Proportion of patients with ILD, by AUC quartile ([5]; after a single dose, AUC0–24 Quartile 4): 32.1%
- Proportion of patients with ILD, by Cmax quartile ([5]; after a single dose, Cmax Quartile 1): 11.9%
- Proportion of patients with ILD, by Cmax quartile ([5]; after a single dose, Cmax Quartile 2): 8.3%
- Proportion of patients with ILD, by Cmax quartile ([5]; after a single dose, Cmax Quartile 3): 9.5%
- Proportion of patients with ILD, by Cmax quartile ([5]; after a single dose, Cmax Quartile 4): 31.0%
- AUC0–24 lower than or equal to the third quartile [5, 7]: ≤ 3855 ng·h/mL
- Cmax lower than or equal to the third quartile [5, 7]: ≤ 207 ng/mL
- Proportion of patients with ILD, by AUC quartile ([5]; at steady state, AUC0–24,ss Quartile 1): 5.1%
- Proportion of patients with ILD, by AUC quartile ([5]; at steady state, AUC0–24,ss Quartile 2): 7.8%
- Proportion of patients with ILD, by AUC quartile ([5]; at steady state, AUC0–24,ss Quartile 3): 15.4%
- Proportion of patients with ILD, by AUC quartile ([5]; at steady state, AUC0–24,ss Quartile 4): 14.3%
- Proportion of patients with ILD, by Cmax quartile ([5]; at steady state, Cmax,ss Quartile 1): 6.4%
- Proportion of patients with ILD, by Cmax quartile ([5]; at steady state, Cmax,ss Quartile 2): 6.5%
- Proportion of patients with ILD, by Cmax quartile ([5]; at steady state, Cmax,ss Quartile 3): 17.9%
- Proportion of patients with ILD, by Cmax quartile ([5]; at steady state, Cmax,ss Quartile 4): 11.7%
- increase of AUC of gefitinib ([6]; gefitinib 250 mg in the presence of itraconazole): 78%
- increase of AUC of gefitinib ([6]; gefitinib 500 mg in the presence of itraconazole): 61%
- binding to human AGP (human AGP; at 0.05 mg/mL): 83.0%
- binding to human AGP (human AGP; at 8 mg/mL): 68.5%
